Common to all, as to format: in vivo
Test [1] relates to Pseudoperonospora cubensis. Description: Test of examining control effect on Pseudoperonospora cubensis (potted cucumber plants). The conditions noted are these: 96 h, 10% wettable powder adjusted to 125 ppm, 15 ml/pot sprayed on potted cucumber plants one day before spray inoculation, assessed after 1 day wet chamber and 3 days greenhouse, read-out: Determination of control effect (preventive value) on Pseudoperonospora cubensis. A digest of the protocol:
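Preventive treatment: 125 ppm sample agent solution (from 10% wettable powder) sprayed at 15 ml/pot on 2.5-leaf Sagamihanjiro cucumbers, then P. cubensis inoculated next day at 1.0×10^4 cells/ml. Incubation was 1 day wet at 21° C plus 3 days greenhouse. Lesion area rate compared with untreated gives preventive value (≥60% high).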

A further test deals with Phytophthora infestans. As to the kind of experiment: whole plant or invertebrate. Particulars: in Solanum lycopersicum, 96 h, read-out: Determination of control effect (preventive value).
For the next test, the system named is Sphaerotheca fuliginea. Description: Test of examining control effect on Sphaerotheca fuliginea (potted cucumber plants). Particulars: Podosphaera fuliginea, 336 h, 10% wettable powder adjusted to 125 ppm, 15 ml/pot sprayed on potted cucumber plants one day before spray inoculation, assessed after 14 days in greenhouse, read-out: Determination of control effect (preventive value) on Sphaerotheca fuliginea. The procedure, abridged: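 Control effect rated high at preventive value 60–100% and low below 60%, from lesion area relative to untreated plants 14 days after spray inoculation with S. fuliginea (1.0×10^5 cells/ml). Compound applied at 125 ppm as wettable-powder spray one day before inoculation, on 2nd-leaf-stage Sagamihanjiro cucumber.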

Among the data in US8586505B2 (SDS Biotech K. K., priority 2009, dated 2013) are pest or weed control values, retold here.

Read-outs that look alike come from different tables or passages of the source.

For the molecule `C#CCC(Nc1ncnc2ccccc12)c1ccccc1` (stereo not drawn) [compound 300, 4-[(1-Phenyl-3-butynyl)amino]quinazoline], the pest or weed control at 125 µg/mL (in test [1]; with Sphaerotheca fuliginea) was 60 to 100% each time. Also, the pest or weed control at 125 ppm in the test on Phytophthora infestans was in the range of 0 to 60%.
As to `CCOC(=O)C(CC#Cc1ccccc1)Nc1ncnc2ccccc12` (stereo not drawn) [compound 303], the values for the pest or weed control at 125 µg/mL (in test [1] (in Cucumis sativus); in the test with Sphaerotheca fuliginea (in Cucumis sativus)) were 60 to 100% and 0 to 60%, respectively. The pest or weed control at 125 ppm in the test with Phytophthora infestans fell in the range of 0 to 60%.
For the molecule `CCOC(=O)C(CC#Cc1ccccc1C(F)(F)F)Nc1ncnc2ccccc12` (stereo not drawn) [compound 304], the pest or weed control at 125 µg/mL (in test [1]; in the test with Sphaerotheca fuliginea) was 60 to 100% in each case. For the same molecule, in the test with Phytophthora infestans, the pest or weed control at 125 ppm lay within 0 to 60%.
With `CNC(=O)C(CC#Cc1ccccc1)Nc1ncnc2ccccc12` (stereo not drawn) [compound 305], the figures for the pest or weed control at 125 µg/mL (in test [1] (in Cucumis sativus); in the test with Sphaerotheca fuliginea (in Cucumis sativus)) were 60 to 100% and 0 to 60%, respectively. Further, the pest or weed control at 125 ppm in the test on Phytophthora infestans is 0 to 60%.
For `Fc1cccc2c(NCCC#Cc3ccccc3C(F)(F)F)ncnc12` [compound 306], the pest or weed control at 125 µg/mL (in test [1]; in the test on Sphaerotheca fuliginea) was 60 to 100% throughout. The pest or weed control at 125 ppm in the test on Phytophthora infestans is 60 to 100%.
On to `FC(F)(F)c1ccccc1C#CCCNc1ncnc2c(Cl)cccc12` [compound 307], for which the pest or weed control at 125 µg/mL (in test [1]; in the test on Sphaerotheca fuliginea) was 60 to 100% throughout. Further, the pest or weed control at 125 ppm with Phytophthora infestans lay in the range of 0 to 60%.
With `FC(F)(F)c1ccccc1C#CCCNc1ncnc2ccc(Cl)cc12` [compound 309], the pest or weed control at 125 µg/mL (in test [1]; with Sphaerotheca fuliginea) was 60 to 100% in each case. Moreover, in the test on Phytophthora infestans, the pest or weed control at 125 ppm lay in the range of 0 to 60%.
On to `FC(F)(F)c1ccccc1C#CCCNc1ncnc2cccc(Cl)c12` [compound 310], for which the pest or weed control at 125 µg/mL (in test [1]; in the test on Sphaerotheca fuliginea) was 60 to 100% each time. Further, in the test with Phytophthora infestans, the pest or weed control at 125 ppm lay within 0 to 60%.
In the case of `COCc1ccccc1C#CCCNc1ncnc2c(Cl)cccc12` [compound 311], the pest or weed control at 125 µg/mL (in test [1]; in the test with Sphaerotheca fuliginea) was 60 to 100% throughout. For the same molecule, the pest or weed control at 125 ppm in the test on Phytophthora infestans is 60 to 100%.
On to `COCc1ccccc1C#CCCNc1ncnc2cc(Cl)ccc12` [compound 312], for which the pest or weed control at 125 µg/mL (in test [1]; with Sphaerotheca fuliginea) was 60 to 100% throughout. In addition, the pest or weed control at 125 ppm in the test with Phytophthora infestans was in the range of 0 to 60%.
As for `COCc1ccccc1C#CCCNc1ncnc2ccc(Cl)cc12` [compound 313], the pest or weed control at 125 µg/mL (in test [1]; with Sphaerotheca fuliginea) was 60 to 100% each time. Besides, the pest or weed control at 125 ppm with Phytophthora infestans lay within 0 to 60%.
Take `COCc1ccccc1C#CCCNc1ncnc2cccc(Cl)c12` [compound 314]: the pest or weed control at 125 µg/mL (in test [1]; in the test with Sphaerotheca fuliginea) was 60 to 100% in each case. In addition, in the test on Phytophthora infestans, the pest or weed control at 125 ppm was in the range of 0 to 60%.
On to `COCc1ccccc1C#CCCNc1ncnc2c(F)cccc12` [compound 315], for which the pest or weed control at 125 µg/mL (in test [1]; in the test on Sphaerotheca fuliginea) was 60 to 100% in each case. Also, the pest or weed control at 125 ppm in the test with Phytophthora infestans lay within 60 to 100%.
As to `COCc1ccccc1C#CCCNc1ncnc2cc(F)ccc12` [compound 316], the pest or weed control at 125 µg/mL (in test [1]; with Sphaerotheca fuliginea) was 60 to 100% throughout. Moreover, in the test with Phytophthora infestans, the pest or weed control at 125 ppm lay in the range of 60 to 100%.
For `COCc1ccccc1C#CCCNc1ncnc2ccc(F)cc12` [compound 317], the pest or weed control at 125 µg/mL (in test [1]; in the test on Sphaerotheca fuliginea) was 60 to 100% in each case. Moreover, in the test with Phytophthora infestans, the pest or weed control at 125 ppm lay within 60 to 100%.
In the case of `COCc1ccccc1C#CCCNc1ncnc2cccc(F)c12` [compound 318], the pest or weed control at 125 µg/mL (in test [1]; in the test on Sphaerotheca fuliginea) was 60 to 100% throughout. Also, in the test with Phytophthora infestans, the pest or weed control at 125 ppm lay within 60 to 100%.
In the case of `COCc1ccccc1C#CCCNc1ncnc2cc(F)c(F)cc12` [compound 319], the pest or weed control at 125 µg/mL (in test [1]; in the test with Sphaerotheca fuliginea) was 60 to 100% each time. Also, the pest or weed control at 125 ppm in the test on Phytophthora infestans was in the range of 60 to 100%.
For `COCc1ccccc1C#CCCNc1ncnc2cc(Br)ccc12` [compound 320], the pest or weed control at 125 µg/mL (in test [1]; in the test with Sphaerotheca fuliginea) was 60 to 100% in each case. Besides, the pest or weed control at 125 ppm with Phytophthora infestans fell in the range of 0 to 60%.
Take `COCc1ccccc1C#CCCNc1ncnc2ccc(Br)cc12` [compound 321]: the pest or weed control at 125 µg/mL (in test [1]; in the test on Sphaerotheca fuliginea) was 60 to 100% throughout. Moreover, the pest or weed control at 125 ppm in the test on Phytophthora infestans is 0 to 60%.
Take `COCc1ccccc1C#CCCNc1ncnc2c(C(F)(F)F)cccc12` [compound 323]: the pest or weed control at 125 µg/mL (in test [1]; with Sphaerotheca fuliginea) was 60 to 100% in each case. In addition, the pest or weed control at 125 ppm in the test with Phytophthora infestans lay in the range of 60 to 100%.
`COCc1ccccc1C#CCCNc1ncnc2cc(C(F)(F)F)ccc12` [compound 324]: the pest or weed control at 125 µg/mL in test [1] lay in the range of 60 to 100%; in the test with Sphaerotheca fuliginea it was 0 to 60%. Also, the pest or weed control at 125 ppm in the test on Phytophthora infestans fell in the range of 0 to 60%.
`COCc1ccccc1C#CCCNc1ncnc2c(C)cccc12` [compound 325]: the pest or weed control at 125 µg/mL (in test [1]; with Sphaerotheca fuliginea) was 60 to 100% in each case. Further, the pest or weed control at 125 ppm in the test with Phytophthora infestans lay within 60 to 100%.
On to `COCc1ccccc1C#CCCNc1ncnc2ccc(C)cc12` [compound 326], for which the pest or weed control at 125 µg/mL (in test [1]; in the test with Sphaerotheca fuliginea) was 60 to 100% throughout. The pest or weed control at 125 ppm in the test on Phytophthora infestans was 0 to 60%.
Regarding `COCc1ccccc1C#CCCNc1ncnc2c(C)cc(Cl)cc12` [compound 327], the values for the pest or weed control at 125 µg/mL (in test [1]; in the test on Sphaerotheca fuliginea) were 60 to 100% and 0 to 60%, respectively. Besides, the pest or weed control at 125 ppm with Phytophthora infestans lay in the range of 0 to 60%.
On to `COCc1ccccc1C#CCCNc1ncnc2c(OC)cccc12` [compound 328], for which the pest or weed control at 125 µg/mL (in test [1]; in the test on Sphaerotheca fuliginea) was 60 to 100% throughout. Also, in the test on Phytophthora infestans, the pest or weed control at 125 ppm was 0 to 60%.
Consider `COCc1ccccc1C#CCCNc1ncnc2ccc(OC)cc12` [compound 329], for which the pest or weed control at 125 µg/mL (in test [1]; with Sphaerotheca fuliginea) was 60 to 100% in each case. Further, the pest or weed control at 125 ppm in the test on Phytophthora infestans was in the range of 60 to 100%.
Take `COCc1ccccc1C#CCCNc1ncnc2ccc(C#N)cc12` [compound 330]: the pest or weed control at 125 µg/mL in test [1] was in the range of 60 to 100%; with Sphaerotheca fuliginea, 0 to 60%. The pest or weed control at 125 ppm in the test on Phytophthora infestans is 60 to 100%.
Turning to `COCc1ccccc1C#CCCNc1ncnc2ccc([N+](=O)[O-])cc12` [compound 331], the pest or weed control at 125 µg/mL in test [1] lay in the range of 60 to 100%; in the test on Sphaerotheca fuliginea it was 0 to 60%. In the test with Phytophthora infestans, the pest or weed control at 125 ppm was 0 to 60%.
For the molecule `COCc1ccccc1C#CCCNc1ncnc2ccc(SC)cc12` [compound 332], the pest or weed control at 125 µg/mL in test [1] lay in the range of 60 to 100%; with Sphaerotheca fuliginea it was 0 to 60%. Further, in the test on Phytophthora infestans, the pest or weed control at 125 ppm lay in the range of 0 to 60%.
Turning to `COCc1ccccc1C#CCCNc1ncnc2ccc(-c3ccccc3)cc12` [compound 333], the pest or weed control at 125 µg/mL fell in the range of 60 to 100% in test [1] and 0 to 60% in the test with Sphaerotheca fuliginea. Besides, in the test with Phytophthora infestans, the pest or weed control at 125 ppm is 0 to 60%.
Turning to `COCc1ccccc1C#CCCNc1ncnc2ccc(-c3ccccc3F)cc12` [compound 334], the pest or weed control at 125 µg/mL was 60 to 100% in test [1] and 0 to 60% with Sphaerotheca fuliginea. Moreover, in the test with Phytophthora infestans, the pest or weed control at 125 ppm fell in the range of 0 to 60%.
On to `COCc1ccccc1C#CCCNc1ncnc2ccc(-c3cccc(F)c3)cc12` [compound 335], for which the pest or weed control at 125 µg/mL in test [1] fell in the range of 60 to 100%; in the test on Sphaerotheca fuliginea it was 0 to 60%. The pest or weed control at 125 ppm in the test on Phytophthora infestans fell in the range of 0 to 60%.
For the molecule `COCc1ccccc1C#CCCNc1ncnc2ccc(-c3ccc(F)cc3)cc12` [compound 336], the pest or weed control at 125 µg/mL in test [1] fell in the range of 60 to 100%; in the test on Sphaerotheca fuliginea, 0 to 60%. For the same molecule, in the test with Phytophthora infestans, the pest or weed control at 125 ppm lay in the range of 0 to 60%.
On to `COCc1ccccc1C#CCCNc1ncnc2ccc(-c3cccnc3)cc12` [compound 337], for which the results for the pest or weed control at 125 µg/mL (in test [1]; in the test with Sphaerotheca fuliginea) were 60 to 100% and 0 to 60%, respectively. The pest or weed control at 125 ppm in the test with Phytophthora infestans was in the range of 0 to 60%.
In the case of `COCc1ccccc1C#CCCNc1ncnc2ccc(OCC#Cc3ccccc3)cc12` [compound 339], the results for the pest or weed control at 125 µg/mL (in test [1]; in the test on Sphaerotheca fuliginea) were 60 to 100% and 0 to 60%, respectively. Also, the pest or weed control at 125 ppm in the test on Phytophthora infestans lay in the range of 0 to 60%.
For the molecule `COCc1ccccc1C#CCCNc1ncnc2ccc(OCc3ccccc3)cc12` [compound 340], the pest or weed control at 125 µg/mL in test [1] is 60 to 100%; in the test with Sphaerotheca fuliginea, 0 to 60%. Further, in the test with Phytophthora infestans, the pest or weed control at 125 ppm was in the range of 0 to 60%.
Take `COCc1ccccc1C#CCCNc1ncnc2c(C)cc(C)cc12` [compound 341]: the figures for the pest or weed control at 125 µg/mL (in test [1]; in the test on Sphaerotheca fuliginea) were 60 to 100% and 0 to 60%, respectively. Besides, in the test with Phytophthora infestans, the pest or weed control at 125 ppm was 0 to 60%.
Turning to `FC(F)(F)c1ccccc1C#CCCNc1ncnc2cc3ccccc3cc12` [compound 342], the pest or weed control at 125 µg/mL in test [1] lay within 60 to 100%; in the test on Sphaerotheca fuliginea, 0 to 60%. Further, the pest or weed control at 125 ppm in the test on Phytophthora infestans was 0 to 60%.
Turning to `CC(CC#Cc1ccccc1C(F)(F)F)Nc1ncnc2c(F)cccc12` (stereo not drawn) [compound 343], the pest or weed control at 125 µg/mL (in test [1]; in the test on Sphaerotheca fuliginea) was 60 to 100% in each case. In the test with Phytophthora infestans, the pest or weed control at 125 ppm is 60 to 100%.
